Results taken from paper PMC7734336, “Riproximin Exhibits Diversity in Sugar Binding, and Modulates some Metastasis-Related Proteins with Lectin like Properties in Pancreatic Ductal Adenocarcinoma” (Frontiers in Pharmacology, 2020).

Key:
Riproximin (Rpx) [1] = target: T1, Riproximin (Rpx) (Ximenia americana, UniProt Q2PA54); assay: 1H NMR line broadening and waterLOGSY; type: binding; conditions: 298 K; pyranose anomers observed separately in one sample
Riproximin (Rpx) [2] = target: T1, Riproximin (Rpx); assay: waterLOGSY NMR; type: binding; conditions: 298 K; pyranose anomers observed separately in one sample

T1 sequence (Q2PA54 53-325 limits assumed): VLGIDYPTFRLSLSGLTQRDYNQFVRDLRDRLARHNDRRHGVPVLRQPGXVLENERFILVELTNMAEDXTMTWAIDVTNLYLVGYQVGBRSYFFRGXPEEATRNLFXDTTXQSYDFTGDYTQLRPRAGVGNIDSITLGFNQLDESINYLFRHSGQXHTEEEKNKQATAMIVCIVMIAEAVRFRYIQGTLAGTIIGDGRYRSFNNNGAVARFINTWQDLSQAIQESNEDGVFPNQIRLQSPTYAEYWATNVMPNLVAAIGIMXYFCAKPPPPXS
T1 sequence (Q2PA54 334-601 limits assumed): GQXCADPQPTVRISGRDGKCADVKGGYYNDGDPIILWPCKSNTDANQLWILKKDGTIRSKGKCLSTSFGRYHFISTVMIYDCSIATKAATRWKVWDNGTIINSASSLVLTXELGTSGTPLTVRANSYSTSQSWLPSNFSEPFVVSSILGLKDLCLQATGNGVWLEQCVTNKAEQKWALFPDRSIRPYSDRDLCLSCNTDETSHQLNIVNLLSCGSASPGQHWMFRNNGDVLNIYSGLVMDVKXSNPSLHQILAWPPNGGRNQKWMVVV

| Compound | 1H NMR line broadening and waterLOGSY (Riproximin (Rpx) [1]) | waterLOGSY NMR (Riproximin (Rpx) [2]) |
| --- | --- | --- |
| OC[C@H]1OC(O)[C@H](O)[C@@H](O)[C@H]1O (mixture of isomers) [D-galactose] | The affinities of both D-galactose and L-fucose for Rpx were moderate as evident by clear | – |
| C[C@@H]1OC(O)[C@@H](O)[C@H](O)[C@@H]1O (mixture of isomers) [L-fucose] | The methyl doublet signals of L-fucose show clear line broadening due to binding to Rpx | – |
| C[C@@H]1OC(O)[C@H](O)[C@H](O)[C@H]1O (mixture of isomers) [L-rhamnose] | – | water-LOGSY spectrum confirmed nevertheless the very weak binding of both, the α- and β-anomers of l-rhamnose |
